# Source: patent publication US9732087B2, “Diamino-pyridine, pyrimidine, and pyridazine modulators of the histamine H4 receptor” (JANSSEN PHARMACEUTICA NV, priority 2008, dated 2017)
# Structures can show the parent of a compound that is named as a salt.
# Biological target: human H4 receptor (Homo sapiens (Human), UniProt Q9H3N8)
# Assay: Binding assay on recombinant human histamine H4 receptor ([3H]histamine competition, SK-N-MC cell membranes)
# Conditions: Cell Harvester Ki (nM)
# Procedure: Binding Assay on Recombinant Human Histamine H4Receptor
# Cell pellets from SK-N-MC cells stably or transiently transfected with human H4 receptor (NCBI accession No. AF312230) were used for the binding assays. Cell pellets were homogenized in 50 mM Tris/5 mM EDTA buffer and supernatants from an 800 g spin were collected and recentrifuged at 30,000 g for 30 min. Pellets were rehomogenized in 50 mM Tris/5 mM EDTA buffer. […] Membranes were harvested by rapid filtration using the 96 well Brandel system (Table 1, Brandel) or a cell harvester (Table 1, Cell Harvester) using a Whatman GF/C filter or filter plates treated with 0.5% polyethylenimine (PEI), and washed 4 times with ice-cold 50 mM Tris/5 mM EDTA buffer. Filters were then dried, mixed with scintillant and radioactive counts were determined. […] Where activity is shown as greater than (>) a particular value, the value is the highest concentration tested.
row,SMILES,Ki [nM]
1,"CCCCNc1cc(N2CCNCC2)ccn1 [Example 36, N-Butyl-4-piperazin-1-ylpyridin-2-amine]",104

# Same assay, conditions: membranes harvested with 96 well Brandel system; [3H]histamine 10 nM; average of results; read-out: Brandel Ki
row,Ki [nM],SMILES
1,240,"c1cc(N2CCNCC2)nc(NC2CC3CCC2C3)n1 (stereo not shown) [Example 70, Bicyclo[2.2.1]hept-2-yl-(4-piperazin-1-yl-pyrimidin-2-yl)-amine]"
2,26.2,"CC(C)CNc1nccc(N2CC(N)C2)n1 [Example 89, 4-(3-Aminoazetidin-1-yl)-N-(2-methylpropyl)pyrimidin-2-amine]"
3,31.5,"CN1CCN(c2ccnc(NC3CC4CCC3C4)n2)CC1 (stereo not shown) [Example 44, N-[Bicyclo[2.2.1]hept-2-yl]-4-(4-methylpiperazin-1-yl)pyrimidin-2-amine]"

# Same assay, conditions: membranes harvested with cell harvester; [3H]histamine 10 nM; average of results; read-out: Cell Harvester Ki
row,Ki [nM],SMILES
1,239,"CC1(C)[C@H]2CC[C@H](CNc3cc(N4C[C@H]5CCN[C@H]5C4)ccn3)[C@@H]1C2 [Example 291, N-{[(1S,2S,5S)-6,6-Dimethylbicyclo[3.1.1]hept-2-yl]methyl}-4-[(3aR,6aR)-hexahydropyrrolo[3.4-b]pyrrol-5(1H)-yl]pyridin-2-amine]"
2,88.1,"NC1CN(c2cnnc(NC3CC4CCC3C4)c2)C1 (stereo not shown) [Example 322, 5-(3-Aminoazetidin-1-yl)-N-bicyclo[2.2.1]hept-2-ylpyridazin-3-amine]"
3,410,"COCCNc1cc(N2CC[C@@H](N)C2)ccn1 [Example 289, 4-[(3R)-3-Aminopyrrolidin-1-yl]-N-(2-methoxyethyl)pyridin-2-amine]"
4,73,"c1cc(N2CCNCC2)nc(NC2CC3CCC2C3)n1 (stereo not shown) [Example 70, Bicyclo[2.2.1]hept-2-yl-(4-piperazin-1-yl-pyrimidin-2-yl)-amine]"
5,69.3,"CC(C)CNc1nccc(N2CC(N)C2)n1 [Example 89, 4-(3-Aminoazetidin-1-yl)-N-(2-methylpropyl)pyrimidin-2-amine]"
6,867,"CCCCNc1cc(N2CC[C@@H](N)C2)cnn1 [Example 367, 5-[(3R)-3-Aminopyrrolidin-1-yl]-N-butylpyridazin-3-amine]"
7,194,"CC1(C)C2CCC(CNc3nccc(N4CC[C@@H](N)C4)n3)C1C2 (stereo partly drawn) [Example 106, 4-[(3R)-3-Aminopyrrolidin-1-yl]-N-[(6,6-dimethylbicyclo[3.1.1]hept-2-yl)methyl]pyrimidin-2-amine]"
8,> 10000,"CC(C)(CO)CNc1nccc(N2CCNCC2)n1 [Example 166, 2,2-Dimethyl-3-[(4-piperazin-1-ylpyrimidin-2-yl)amino]propan-1-ol]"
9,> 10000,"N[C@H]1CCN(c2ccnc(NCc3ccccn3)c2)C1 [Example 258, 4-[(3S)-3-Aminopyrrolidin-1-yl]-N-(pyridin-2-ylmethyl)pyridin-2-amine]"
10,> 10000,"NC1CN(c2cnnc(NCc3ccccc3)c2)C1 [Example 329, 5-(3-Aminoazetidin-1-yl)-N-benzylpyridazin-3-amine]"
11,141,"CNC1CN(c2ccnc(NC3CCOCC3)n2)C1 [Example 108, 4-[3-(Methylamino)azetidin-1-yl]-N-(tetrahydro-2H-pyran-4-yl)pyrimidin-2-amine]"
12,45.5,"CN[C@@H]1CCN(c2ccnc(NCCOC)n2)C1 [Example 82, (2-Methoxy-ethyl)-[4-(3R)-(3-methylamino-pyrrolidin-1-yl)-pyrimidin-2-yl]-amine]"
13,2300,"N[C@H]1CCN(c2ccnc(NCc3ccc(F)cc3)n2)C1 [Example 199, 4-[(3S)-3-Aminopyrrolidin-1-yl]-N-(4-fluorobenzyl)pyrimidin-2-amine]"
14,816,"C[C@@H](Nc1nccc(N2CC[C@@H](N)C2)n1)c1ccccc1 [Example 175, 4-[(3R)-3-Aminopyrrolidin-1-yl]-N-[(1R)-1-phenylethyl]pyrimidin-2-amine]"
15,1.71,"c1cc(N2CCCNCC2)cc(NC2CC3CCC2C3)n1 (stereo not shown) [Example 265, N-Bicyclo[2.2.1]hept-2-yl-4-(1,4-diazepan-1-yl)pyridin-2-amine]"
16,259,"CN[C@H]1CCN(c2cnnc(NCC(C)(C)C)c2)C1 [Example 385, N-(2,2-Dimethylpropyl)-5-[(3S)-3-(methylamino)pyrrolidin-1-yl]pyridazin-3-amine]"
17,44.9,"CN[C@H]1CCN(c2ccnc(N[C@H]3C[C@H]4CC[C@]3(C)C4(C)C)c2)C1 [Example 206, 4-[(3S)-3-(Methylamino)pyrrolidin-1-yl]-N-[(1R,2S,4R)-1,7,7-trimethylbicyclo[2.2.1]hept-2-yl]pyridin-2-amine]"
18,67.3,"CN[C@@H]1CCN(c2ccnc(NC3CCOCC3)c2)C1 [Example 222, 4-[(3R)-3-(Methylamino)pyrrolidin-1-yl]-N-(tetrahydro-2H-pyran-4-yl)pyridin-2-amine]"
19,296,"CN[C@H]1CCN(c2cnnc(NCC(C)C)c2)C1 [Example 379, 5-[(3S)-3-(Methylamino)pyrrolidin-1-yl]-N-(2-methylpropyl)pyridazin-3-amine]"

row,Ki [nM],SMILES
1,1480,"CC(C)(O)CNc1cc(N2CCNCC2)ccn1 [Example 290, 2-Methyl-1-[(4-piperazin-1-ylpyridin-2-yl)amino]propan-2-ol]"
2,2.2,"CN[C@@H]1CCN(c2ccnc(NCC(C)(C)C)c2)C1 [Example 41, N-(2,2-Dimethylpropyl)-4-[(3R)-3-(methylamino)pyrrolidin-1-yl]pyridin-2-amine]"
3,4310,"CNC1CN(c2cnnc(NCCOC)c2)C1 [Example 320, N-(2-Methoxyethyl)-5-[3-(methylamino)azetidin-1-yl]pyridazin-3-amine]"
4,85.7,"CN1CCN(c2ccnc(NC3CC4CCC3C4)n2)CC1 (stereo not shown) [Example 44, N-[Bicyclo[2.2.1]hept-2-yl]-4-(4-methylpiperazin-1-yl)pyrimidin-2-amine]"
5,> 10000,"Fc1ccc(CNc2cc(N3CCNCC3)cnn2)cc1 [Example 346, N-(4-Fluorobenzyl)-5-piperazin-1-ylpyridazin-3-amine]"
6,659,"CN1CCN(c2ccnc(NCCc3ccccc3)c2)CC1 [Example 250, 4-(4-Methylpiperazin-1-yl)-N-(2-phenylethyl)pyridin-2-amine]"
7,1680,"CC(C)CNc1cc(N2CC(N)C2)cnn1 [Example 328, 5-(3-Aminoazetidin-1-yl)-N-(2-methylpropyl)pyridazin-3-amine]"
8,157,"CN[C@H]1CCN(c2ccnc(N[C@H](C)C3CCCCC3)c2)C1 [Example 213, N-[(1R)-1-Cyclohexylethyl]-4-[(3S)-3-(methylamino)pyrrolidin-1-yl]pyridin-2-amine]"
9,860,"CN[C@H]1CCN(c2ccnc(NCc3ccccn3)n2)C1 [Example 200, 4-[(3S)-3-(Methylamino)pyrrolidin-1-yl]-N-(pyridin-2-ylmethyl)pyrimidin-2-amine]"
10,413,"Cc1ccc(CNc2nccc(N3CCNCC3)n2)cc1 [Example 156, N-(4-Methylbenzyl)-4-piperazin-1-ylpyrimidin-2-amine]"
11,8.4,"N[C@@H]1CCN(c2ccnc(NC3CCC3)n2)C1 [Example 28, 4-[(3R)-3-Aminopyrrolidin-1-yl]-N-cyclobutylpyrimidin-2-amine]"
12,> 10000,"COCCNc1cc(N2CC(N)C2)cnn1 [Example 335, 5-(3-Aminoazetidin-1-yl)-N-(2-methoxyethyl)pyridazin-3-amine]"
13,206,"CNC1CN(c2cnnc(NC3CC3)c2)C1 [Example 351, N-Cyclopropyl-5-[3-(methylamino)azetidin-1-yl]pyridazin-3-amine]"
14,3940,"CN[C@H]1CCN(c2cnnc(NCc3ccc(F)cc3)c2)C1 [Example 399, N-(4-Fluorobenzyl)-5-[(3S)-3-(methylamino)pyrrolidin-1-yl]pyridazin-3-amine]"
15,697,"C[C@@H]1[C@@H](Nc2nccc(N3CCNCC3)n2)C[C@H]2C[C@@H]1C2(C)C [Example 134, 4-Piperazin-1-yl-N-[(1S,2S,3S,5R)-2,6,6-trimethylbicyclo[3.1.1]hept-3-yl]pyrimidin-2-amine]"
16,9.96,"CNC1CN(c2ccnc(NC(C)(C)C)c2)C1 [Example 280, N-tert-Butyl-4-[3-(methylamino)azetidin-1-yl]pyridin-2-amine]"
17,79.3,"CN[C@@H]1CCN(c2cnnc(N[C@H](C)c3ccccc3)c2)C1 [Example 401, 5-[(3R)-3-(Methylamino)pyrrolidin-1-yl]-N-[(1R)-1-phenylethyl]pyridazin-3-amine]"
18,47.4,"CN1CCN(c2ccnc(NCC3CCCC3)c2)CC1 [Example 236, N-(Cyclopentylmethyl)-4-(4-methylpiperazin-1-yl)pyridin-2-amine]"
19,416,"C[C@@H](Nc1cc(N2CCN(C)CC2)ccn1)C1CCCCC1 [Example 214, N-[(1R)-1-Cyclohexylethyl]-4-(4-methylpiperazin-1-yl)pyridin-2-amine]"

row,SMILES,Ki [nM]
1,"C[C@@H](Nc1cc(N2C[C@H]3CCN[C@H]3C2)ccn1)C1CCCCC1 [Example 271, N-[(1R)-1-Cyclohexylethyl]-4-[(3aR,6aR)-hexahydropyrrolo[3,4-b]pyrrol-5(1H)-yl]pyridin-2-amine]",189
2,"c1cc(N2C[C@H]3CCN[C@H]3C2)cc(NCC2CCCC2)n1 [Example 261, N-(Cyclopentylmethyl)-4-[(3aR,6aR)-hexahydropyrrolo[3,4-b]pyrrol-5(1H)-yl]pyridin-2-amine]",3560
3,"CC(C)CNc1nccc(N2C[C@H]3CCN[C@H]3C2)n1 [Example 138, 4-[(3aR,6aR)-Hexahydropyrrolo[3,4-b]pyrrol-5(1H)-yl]-N-(2-methylpropyl)pyrimidin-2-amine]",23.8
4,"c1cc(N2C[C@H]3CCN[C@H]3C2)cc(NC2CCCC2)n1 [Example 262, N-Cyclopentyl-4-[(3aR,6aR)-hexahydropyrrolo[3,4-b]pyrrol-5(1H)-yl]pyridin-2-amine]",22.1
5,"COCCNc1nccc(N2C[C@H]3CCN[C@H]3C2)n1 [Example 140, 4-[(3aR,6aR)-Hexahydropyrrolo[3,4-b]pyrrol-5(1H)-yl]-N-(2-methoxyethyl)pyrimidin-2-amine]",135
6,"CCCNc1cc(N2CCNCC2)ccn1 [Example 17, 4-Piperazin-1-yl-N-propylpyridin-2-amine dihydrochloride]",375

# Same assay, conditions: read-out: Brandel Ki
row,SMILES,Ki [nM]
1,"CCCCNc1cc(N2CCNCC2)ccn1 [Example 36, N-Butyl-4-piperazin-1-ylpyridin-2-amine]",91.3
